From the NIST ThermoML archive (doi:10.1021/je034012m)
Where “and” joins values, the source holds several entries; their conditions need not be identical. Equal entries are not always repeated. Numbers after ± are expanded uncertainties.

Details: Crystal

O.O.[Ba+2].[Cl-].[Cl-] [barium chloride dihydrate]
Details	vapor or sublimation pressure
295.45 K	0.5 ± 0.33 kPa
295.55 K	0.39 ± 0.32 kPa and 0.53 ± 0.34 kPa
295.65 K	0.56 ± 0.35 kPa
297.35 K	0.31 ± 0.35 kPa
304.25 K	1.22 ± 0.33 kPa
304.55 K	0.9 ± 0.33 kPa
306.35 K	1.01 ± 0.33 kPa
306.95 K	1.31 ± 0.33 kPa
307.25 K	1.39 ± 0.33 kPa
307.35 K	1.04 ± 0.33 kPa
308.25 K	1.19 ± 0.32 kPa
309.45 K	1.3 ± 0.33 kPa
319.05 K	2.5 ± 0.34 kPa
321.15 K	2.66 ± 0.47 kPa
323.15 K	3.88 ± 0.76 kPa
323.45 K	3.85 ± 0.74 kPa
323.75 K	3.97 ± 0.73 kPa
324.15 K	4.05 ± 0.64 kPa
324.85 K	5.15 ± 1.1 kPa
325.55 K	5.1 ± 0.83 kPa
336.95 K	9.4 ± 0.6 kPa
343.65 K	13.59 ± 0.76 kPa

O.[Ba+2].[Cl-].[Cl-] [barium chloride monohydrate]
Details	vapor or sublimation pressure
290.45 K	0.086 ± 0.15 kPa
304.15 K	0.173 ± 0.16 kPa
304.45 K	0.146 ± 0.16 kPa
305.25 K	0.138 ± 0.16 kPa
307.25 K	0.133 ± 0.16 kPa
307.45 K	0.231 ± 0.16 kPa
307.95 K	0.17 ± 0.16 kPa
308.05 K	0.142 ± 0.16 kPa
308.45 K	0.248 ± 0.16 kPa and 0.272 ± 0.16 kPa
308.65 K	0.241 ± 0.16 kPa
308.95 K	0.105 ± 0.16 kPa
309.05 K	0.195 ± 0.16 kPa
309.25 K	0.344 ± 0.16 kPa
310.15 K	0.199 ± 0.16 kPa
311.45 K	0.16 ± 0.16 kPa
312.95 K	0.24 ± 0.16 kPa
313.45 K	0.274 ± 0.16 kPa
315.35 K	0.35 ± 0.16 kPa
315.95 K	0.4 ± 0.16 kPa
316.15 K	0.76 ± 0.16 kPa
318.45 K	0.312 ± 0.16 kPa
322.85 K	0.6 ± 0.16 kPa
323.55 K	0.6 ± 0.16 kPa
334.45 K	1.04 ± 0.17 kPa and 1.1 ± 0.17 kPa
334.85 K	1.01 ± 0.25 kPa
334.95 K	0.96 ± 0.27 kPa
335.45 K	1.26 ± 0.2 kPa
337.45 K	1.51 ± 0.18 kPa
337.65 K	1.47 ± 0.18 kPa
344.95 K	2.06 ± 0.18 kPa
345.25 K	2.05 ± 0.18 kPa
